Patent US20230233546A1, “METHODS OF TREATING CANCER” (Kymera Therapeutics, Inc., priority 2021, published 2023)

Tests used:
[1] = test system: Acute lymphoblastic leukemia cells (RS4;11); assay: Cell Titer Glo cell viability / growth inhibition in RS4;11; type: cell-based; conditions: for IC50: Homo sapiens, RS4-11, read-out: all cell killing CTG IC50 in RS4;11
Description: (§1) In vitro cell viability in all cells lines, at optimized growth conditions, was assessed using Cell Titer Glo (Promega) assay performed over 24 h-96 h compound treatments. Compound treatments were carried out using a 11-point dose response, 3-fold serial dilutions stating at a maximum concentration of 1 uM. IC50, IC90 values were calculated by curve fitting using appropriate Nonlinear Regression fit in GraphPad Prism. Cell cycle arrest and/or apoptosis in response to single agent or combination treatment was assessed using flow cytometry analysis on cells treated for 24 h.
Acute lymphoblastic leukemia cells (RS4;11) were treated for 24 h with Compound A or small molecule inhibitor DS-3032 in a 3-fold serial dilution dose-response at maximum concentration of 1 mM. Growth inhibition was quantified using Cell titer glo (Promega) assay at 24 h continuous treatment.

MOLM-13 xenograft = MOLM-13 xenograft model, combination with standard of care; type: in vivo
[2] = target: T1, C-terminally HiBiT-tagged MDM2 (Homo sapiens, UniProt Q00987); assay: MDM2 degradation, HiBiT signal (Nano-Glo HiBiT lytic detection) in 293T cells; type: cell-based
T1 construct: expressed in transfected cells
Description: 293T cells stably expressing C-terminally HiBiT-tagged MDM2 were treated for 4 h with Compound A or small molecule inhibitor DS-3032 in a 3-fold serial dilution dose-response at maximum concentration of 1 mM. Degradation potency was measured as reduction in HiBiT signal, quantified using Nano-Glo® HiBiT lytic detection system (Promega).

p53 = p53 stabilization, p53 MSD assay in RS4;11 cells; type: cell-based; conditions: RS4;11, 2 h treatment
Description: Acute lymphoblastic leukemia cells (RS4;11) were treated for 2 h (4 h, 8 h and 24 h—data not shown) with Compound A or small molecule inhibitor DS-3032 in a 3-fold serial dilution dose-response at maximum concentration of 1 mM. p53 levels were quantified using p53 MSD assay (Total p53 Whole Cell Lysate Kit, MSD, K150DBD-2).

[3] = test system: Acute lymphoblastic leukemia cells (RS4;11); assay: Washout apoptosis assay, Caspase Glo 3/7 in RS4;11; type: cell-based; conditions: RS4;11, 4 h exposure followed by washout, measured at 24 or 48 h post treatment
Description: For washout assay, cells were treated for 4-24 h at serial dilutions indicated above. At the end of treatment times (4 h, 8 h, 16 h and 24 h) cells were washed twice with complete media, plated in 384-well plates and incubated for 24-72 h. Cells were assessed for viability using Cell Titer Glo (Promega) assay and apoptosis using Caspase Glo 3/7 (Promega) assay at 24 h, 48 h and 72 h post the start of treatment.
Acute lymphoblastic leukemia cells (RS4;11) were treated for 4 h (8 h, 16 h, 24 h—data not shown) with Compound A or small molecule inhibitor DS-3032 at indicated concentrations. Apoptotic activity was quantified as increase in Caspase activity measured using Caspase Glo® 3/7 assay system (Promega).

RS4;11 tumor = assay: RS4;11 subcutaneous mouse xenograft, tumor volume; type: in vivo; conditions: single intravenous bolus, 1, 3, and 10 mg/kg; doses as low as 1 mg/kg
Description: Female mice, 5-8 wks old mice NOD/SCID mice from SPF (Beijing) experimental Animal Science Technology Co., ltd. Animals were received, housed and observed for seven days prior to study initiation. Each mouse were inoculated subcutaneously with RS4;11 tumor cells (1×107) in 0.1 ml of RPMI1640 with 10% FBS for tumor development. Groups and treatments were started when the mean tumor volume reached about 100 mm3 for study. Based on the tumor volume, mice were randomly assigned to respective groups using a computer-generated randomization procedure. Compound A was formulated in 20% HP-β-CD at concentrations up to 0.1 mg/mL and administered intravenously to tumor bearing animals. Tumor size was measured twice to three times weekly in three dimensions using a caliper. The measurement of tumor size were conducted twice weekly with a caliper and recorded. The tumor volume (mm^3) was estimated using the formula: TV=a×b2/2, where “a” and “b” are long and short diameters of a tumor, respectively.
(§2) Compound A was administered as a single intravenous bolus in RS411 tumor bearing mice at doses of 1, 3, and 10 mg/kg. […] Change in the levels of protein markers in degrader treated xenografts was quantified relative vehicle treated xenografts using western blot assay. Clinical equivalent doses of SMIs had no significant in vivo impact in these xenograft models.

p53, p21, and PUMA = assay: Protein markers in RS4;11 tumor xenografts, western blot; type: in vivo, mouse; conditions: 1 mg/kg
Description: At various times tumor bearing animals were sacrificed and plasma and tumors collected for pharmacokinetic and pharmacodynamic determinations.
as §2

disseminated AML model = assay: Disseminated AML xenograft model, survival; type: in vivo, mouse; conditions: weekly administration, compared to vehicle treated animals
Description: Female mice, 5-8 wks old mice NOD/SCID mice from SPF (Beijing) experimental Animal Science Technology Co., ltd. Animals were received, housed and observed for seven days prior to study initiation. Each mouse will be with tumor cells in 0.1 ml PBS via tail-vein injection. Groups and treatments were started 4 days post-inoculation. Based on the body weight, mice were randomly assigned to respective groups using a computer-generated randomization procedure. Compound A was formulated in 20% HP-β-CD at concentrations up to 0.1 mg/mL and administered intravenously to tumor bearing animals.
In this model, Compound A exposures correlated with induction of apoptotic p53 target genes and tumor growth inhibition.

[4] = test system: CTG-2227 AML patient-derived xenograft (PDX); assay: AML patient-derived xenograft model CTG-2227; type: in vivo, mouse; conditions: 1 mg/kg, Q3W, IV
Description: (§3) AML patient cells from leukapheresis were intravenously (IV) injected and established in immunocompromised host strain mice. Surrogate animals were used to determine the level of engraftment targeting a threshold of ˜20% huCD45+ cells in BM. Mice were randomized on study and treatment was initiated. Vehicle and Compound A, 1 mg/kg were administered IV, every three weeks for six weeks (total of two doses of Compound A). At study end, whole blood, bone marrow and spleen were assessed by flow cytometry.

CTG-2240 AML PDX = assay: AML patient-derived xenograft model CTG-2240; type: in vivo, mouse; conditions: 1 mg/kg, Q3W, IV
Description: as §3

CTG-2700 AML PDX = assay: AML patient-derived xenograft model CTG-2700; type: in vivo, mouse; conditions: 1 mg/kg, Q3W, IV
Description: as §3

[5] = test system: hCD45+ cells in bone marrow and AML blasts; assay: AML PDX models, flow cytometry at study end; type: in vivo, mouse; conditions: 1 mg/kg, Q3W
Description: as §3

MOLM-13 cell line = assay: Combination treatment in MOLM-13 cell line, apoptosis and cell killing; type: cell-based; conditions: combination with venetoclax and midostaurin
Description: as §1

[6] = test system: multiple heme indications (AML, T cell lymphomas, mantle cell lymphoma, DLBCL); assay: In vitro activity across heme indications; type: cell-based; conditions: mantle cell lymphoma, and DLBCL most sensitive
Description: as §1

[7] = test system: OCI-LY10 p53^WT ABC-subtype DLBCL xenograft; assay: OCI-LY10 DLBCL xenograft model; type: in vivo
[8] = test system: TMD8 p53^MUT ABC-subtype DLBCL xenograft; assay: TMD8 DLBCL xenograft model; type: in vivo
[9] = test system: panel of solid and hematological tumor cell lines; assay: Cell growth inhibition across a tumor cell line panel; type: cell-based
Description: as §1

T1 sequence (Q00987 whole entry): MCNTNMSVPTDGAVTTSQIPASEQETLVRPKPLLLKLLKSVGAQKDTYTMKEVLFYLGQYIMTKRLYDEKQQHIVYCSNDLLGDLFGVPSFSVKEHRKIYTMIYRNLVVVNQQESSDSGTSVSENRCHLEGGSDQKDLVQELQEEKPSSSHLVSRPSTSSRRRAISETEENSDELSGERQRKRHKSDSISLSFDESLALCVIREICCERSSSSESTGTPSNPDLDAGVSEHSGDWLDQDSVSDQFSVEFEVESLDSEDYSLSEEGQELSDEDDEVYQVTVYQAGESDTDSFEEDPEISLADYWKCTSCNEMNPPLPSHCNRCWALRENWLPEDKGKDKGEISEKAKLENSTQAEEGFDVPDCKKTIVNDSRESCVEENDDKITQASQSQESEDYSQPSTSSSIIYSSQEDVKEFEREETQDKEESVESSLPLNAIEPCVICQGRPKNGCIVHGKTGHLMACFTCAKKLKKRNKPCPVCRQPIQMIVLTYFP

Question: COc1cc(C(=O)O)ccc1NC(=O)[C@@H]1N[C@@H](CC(C)(C)C)[C@](C#N)(c2ccc(Cl)cc2F)[C@H]1c1cccc(Cl)c1F [RG7388] was tested. Which IC50 [1] did it give?
Answer: 220 nM

Question: With Nc1ccn([C@@H]2O[C@H](CO)[C@@H](O)[C@@H]2O)c(=O)n1 [cytarabine] as the compound, how does the “anti-tumor activity in MOLM-13 xenograft model” value (MOLM-13 xenograft; combination of cytarabine and venetoclax) read?
Answer: no significant anti-tumor activity

Question: And the “anti-tumor activity in MOLM-13 xenograft model” value (MOLM-13 xenograft; cytarabine alone)?
Answer: no significant anti-tumor activity

Question: Which IC50 [1] does the source give for CC(C)[C@@H](CS(=O)(=O)C(C)C)N1C(=O)[C@@](C)(CC(=O)O)C[C@H](c2cccc(Cl)c2)[C@H]1c1ccc(Cl)cc1 [AMG-232] here?
Answer: 280 nM

Question: For CC(C)(C)C[C@@H]1N[C@@H](C(=O)N[C@H]2CC[C@H](O)CC2)[C@H](c2cccc(Cl)c2F)[C@]12C(=O)Nc1cc(Cl)ccc12 [SAR405838], which IC50 [1] is on record?
Answer: 620 nM

Question: For CC1(C)CCC2(CC1)N[C@@H](C(=O)N[C@@H]1CC[C@@H](C(N)=O)OC1)[C@H](c1ccnc(Cl)c1F)[C@]21C(=O)Nc2cc(Cl)ccc21 [DS-3032], which IC50 [1] is on record?
Answer: 67 nM

Question: How did the “degradation of MDM2” value ([2]; 4 h treatment) turn out when Cn1c(=O)n(C2CCC(=O)NC2=O)c2ccc(C3CCN(C(=O)[C@H]4CC[C@H](NC(=O)[C@@H]5NC6(CCCCC6)[C@@]6(C(=O)Nc7cc(Cl)ccc76)[C@H]5c5cccc(Cl)c5F)CC4)CC3)cc21 (stereo partly drawn) [Compound A, (3′R,4'S,5′R)-6″-chloro-4′-(3-chloro-2-fluorophenyl)-N-((1R,4R)-4-(4-(1-(2,6-dioxopiperidin-3-yl)-3-methyl-2-oxo-2,3-dihydro-1H-benzo[d]imidazol-5-yl)piperidine-1-carbonyl)cyclohexyl)-2″-oxodispiro[cyclohexane-1,2′-pyrrolidine-3′,3″-indoline]-5′-carboxamide] was run?
Answer: rapid and potent degradation of MDM2

Question: What about the “degrades MDM2 at” value ([2]; FIG. 1, HiBiT-tagged MDM2, 4 h treatment) of the same compound?
Answer: 0.4 nM

Question: And the “stabilization of p53” value (p53)?
Answer: strong stabilization of p53

Question: And the IC50 [1]?
Answer: 0.3 nM

Question: And the “cancer cell growth inhibition” value ([1]; RS4;11, 24 h continuous treatment, compared with SMI)?
Answer: potently inhibits cancer cell growth

Question: What about the “induction of apoptosis (Caspase activity)” value [3] of the same compound?
Answer: sufficient to potently induce apoptosis

Question: What about the anti-tumor activity (RS4;11 tumor) of the same compound?
Answer: sustained tumor regression

Question: What about the “time of peak of protein marker upregulation post-dose” value (p53, p21, and PUMA) of the same compound?
Answer: 6 h

Question: And the “upregulation of protein markers p53, p21, and PUMA in tumor xenografts” value (p53, p21, and PUMA; relative to vehicle treated xenografts)?
Answer: marked upregulation

Question: What about the survival (disseminated AML model) of the same compound?
Answer: significantly prolonged the survival

Question: And the “response in CTG-2227 AML PDX model” value [4]?
Answer: tumor regression

Question: And the “response in CTG-2240 AML PDX model” value (CTG-2240 AML PDX)?
Answer: partial responses

Question: And the “response in CTG-2700 AML PDX model” value (CTG-2700 AML PDX)?
Answer: partial responses

Question: What about the “hCD45+ cells in bone marrow and AML blasts” value [5] of the same compound?
Answer: significantly reduces

Question: And the “induction of apoptosis and cell killing in combination” value (MOLM-13 cell line)?
Answer: enhances induction of apoptosis and cell killing

Question: And the “anti-tumor activity in MOLM-13 xenograft model” value (MOLM-13 xenograft; single dose in combination with daily dosing of venetoclax)?
Answer: sustained tumor regression

Question: What about the “in vitro activity across heme indications” value [6] of the same compound?
Answer: active across multiple heme indications

Question: And the “activity in OCI-LY10 xenograft model” value [7]?
Answer: highly active

Question: What about the “activity in TMD8 xenograft model” value [8] of the same compound?
Answer: not

Question: And the “stronger cell growth inhibition, compared to SMIs” value [9]?
Answer: > 200 fold

Question: Which IC50 [1] does the source give for COc1ncc(-c2nc3c(n2C(C)C)[C@H](c2ccc(Cl)cc2)N(c2cc(Cl)cn(C)c2=O)C3=O)c(OC)n1 [HDM201] here?
Answer: 163 nM
